Experimental data taken from ChEMBL document CHEMBL4007424, “Design and Synthesis of Enantiomerically Pure Decahydroquinoxalines as Potent and Selective κ-Opioid Receptor Agonists with Anti-Inflammatory Activity in Vivo” (J Med Chem, 2017).
Active and inactive are the calls of the source. No cut-off for these calls is given here.

Legend:
[1] = Plasma concentration in Wistar Han rat at 5 mg/kg, iv measured 0.25 hrs post compound administration; format: ADME, organism-based
[2] = Plasma concentration in Wistar Han rat at 5 mg/kg, iv measured 1 hr post compound administration; format: ADME, organism-based
[3] = Drug level in Wistar Han rat brain at 5 mg/kg, iv measured 1 hr post compound administration; format: ADME, organism-based; settings: read-out: Drug uptake
[4] = Ratio of drug level in brain to plasma in Wistar Han rat at 5 mg/kg, iv after 1 hr; format: ADME, organism-based; settings: read-out: BPR
Rattus norvegicus [5] = test: Toxicity in Wistar Han rat assessed as induction of slight lethargy at 5 mg/kg, iv after 0.25 hrs; format: organism-based; settings: in vivo
Rattus norvegicus [6] = test: Toxicity in Wistar Han rat assessed as induction of slight lethargy at 5 mg/kg, iv after 1 hr; format: organism-based; settings: in vivo
[7] = biological target: Kappa-type opioid receptor (Cavia porcellus, UniProt P41144); test: Displacement of [3H]U-69,593 from kappa-type opioid receptor in guinea pig brain membranes after 120 mins by solid scintillation counting; format: cell membranes, Membrane
Sequence of Kappa-type opioid receptor (Cavia porcellus, UniProt P41144) (P41144 whole entry): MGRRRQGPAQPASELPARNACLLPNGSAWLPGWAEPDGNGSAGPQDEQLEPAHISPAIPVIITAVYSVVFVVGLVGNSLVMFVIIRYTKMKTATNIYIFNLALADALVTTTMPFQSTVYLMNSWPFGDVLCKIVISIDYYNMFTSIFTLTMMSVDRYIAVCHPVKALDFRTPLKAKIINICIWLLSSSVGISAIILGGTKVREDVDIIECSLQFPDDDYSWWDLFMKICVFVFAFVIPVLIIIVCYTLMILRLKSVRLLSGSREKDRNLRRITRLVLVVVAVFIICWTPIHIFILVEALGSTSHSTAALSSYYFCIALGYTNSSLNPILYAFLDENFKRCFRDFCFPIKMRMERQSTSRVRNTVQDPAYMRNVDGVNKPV

Mu-type opioid receptor = Mu-type opioid receptor (Cavia porcellus, UniProt P97266); test: Displacement of [3H]DAMGO from mu-type opioid receptor in guinea pig brain membranes after 120 mins by solid scintillation counting; format: cell membranes, Membrane
Sequence of Mu-type opioid receptor (P97266 whole entry): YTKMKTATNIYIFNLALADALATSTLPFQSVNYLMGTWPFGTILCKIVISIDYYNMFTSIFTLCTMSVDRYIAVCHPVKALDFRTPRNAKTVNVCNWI

[8] = Displacement of [3H]DPDPE from delta-type opioid receptor in guinea pig brain membranes after 120 mins by solid scintillation counting; format: cell membranes, Cavia porcellus, Membrane
[9] = biological target: T1, Kappa-type opioid receptor (Homo sapiens, UniProt P41145); test: Agonist activity at recombinant human kappa-type opioid receptor expressed in HEK293 cells after 30 mins by [35S]GTPgammaS binding assay; format: functional, cell-based
T1 sequence (P41145 whole entry): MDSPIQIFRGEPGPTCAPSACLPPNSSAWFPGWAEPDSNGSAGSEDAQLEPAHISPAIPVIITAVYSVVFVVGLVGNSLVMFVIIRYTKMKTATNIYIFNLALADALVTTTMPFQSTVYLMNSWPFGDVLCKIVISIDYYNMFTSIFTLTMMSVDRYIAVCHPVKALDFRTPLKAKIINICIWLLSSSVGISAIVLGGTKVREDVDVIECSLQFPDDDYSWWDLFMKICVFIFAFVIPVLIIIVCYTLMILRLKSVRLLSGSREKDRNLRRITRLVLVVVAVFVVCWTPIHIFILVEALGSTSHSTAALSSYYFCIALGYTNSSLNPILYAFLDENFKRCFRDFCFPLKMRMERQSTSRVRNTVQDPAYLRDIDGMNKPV

Mus musculus [10] = test: Antiinflammatory activity in arachidonic acid-induced ear dermatitis ICR mouse model assessed as reduction in ear swelling at 0.1 mg administered twice tropically 30 mins prior and 15 mins after arachidonic acid addition measured 60 mins post arachidonic acid challenge relative to control; format: functional
Mus musculus [11] = test: Antiinflammatory activity in arachidonic acid-induced ear dermatitis ICR mouse model assessed as reduction in ear swelling at 0.3 mg administered twice tropically 30 mins prior and 15 mins after arachidonic acid addition measured 60 mins post arachidonic acid challenge relative to control; format: functional
Mus musculus [12] = test: Antiinflammatory activity in arachidonic acid-induced ear dermatitis ICR mouse model assessed as reduction in ear swelling at 1 mg administered twice tropically 30 mins prior and 15 mins after arachidonic acid addition measured 60 mins post arachidonic acid challenge relative to control; format: functional
Mus musculus [13] = test: Antiinflammatory activity in arachidonic acid-induced ear dermatitis ICR mouse model assessed as reduction in ear swelling at 3 mg administered twice tropically 30 mins prior and 15 mins after arachidonic acid addition measured 60 mins post arachidonic acid challenge relative to control; format: functional
Mus musculus [14] = test: Antinociceptive activity in sc dosed mouse model of acetic acid-induced writhing; format: functional
Mus musculus [15] = test: CNS toxicity in sc dosed mouse model of acetic acid-induced writhing assessed as lowest dose causing side effects; format: organism-based; settings: in vivo
[16] = biological target: Sigma non-opioid intracellular receptor 1 (Cavia porcellus) (UniProt Q60492); test: Displacement of [3H]-(+)-pentazocine from sigma1-type […] receptor in guinea pig cortex membranes at 1 uM after 120 mins by solid scintillation counting; format: cell membranes
Sequence of Sigma non-opioid intracellular receptor 1 (Cavia porcellus) (Q60492 whole entry): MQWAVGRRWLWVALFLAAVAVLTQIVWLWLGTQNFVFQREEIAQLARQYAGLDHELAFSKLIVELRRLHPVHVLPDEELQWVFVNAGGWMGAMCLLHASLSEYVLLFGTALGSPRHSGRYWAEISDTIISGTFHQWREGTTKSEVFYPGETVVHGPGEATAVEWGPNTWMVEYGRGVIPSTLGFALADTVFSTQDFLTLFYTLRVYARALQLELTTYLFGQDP

Rattus norvegicus [17] = species on record: Rattus norvegicus; test: Displacement of [3H]-DTG from sigma 2 receptor in rat liver membranes at 1 uM after 120 mins by scintillation counting; format: cell membranes; settings: Membrane
Sus scrofa = species on record: Sus scrofa; test: Displacement of [3H]-(+)-MK 801 from PCP binding site of NMDA receptor in pig brain cortex membranes at 10 uM after 120 mins by solid scintillation counting; format: cell membranes
[18] = biological target: T1, Kappa-type opioid receptor; test: Agonist activity at recombinant human kappa-type opioid receptor expressed in HEK293 cells at 1 uM after 30 mins by [35S]GTPgammaS binding assay; format: functional, cell-based
Mus musculus [19] = test: (§1) Antiinflammatory activity in oxazolone-induced delayed type hypersensitivity BALB/c mouse model assessed as reduction in ear weight at 2.5 mg applied topically on ear administered 3 hrs prior to oxazolone challenge on day 7 to 12 post sensitization followed by re-administration of compound on day 13 to 18 without oxazolone challenge measured on day 19; format: functional
Mus musculus [20] = test: Antiinflammatory activity in oxazolone-induced delayed type hypersensitivity BALB/c mouse model assessed as reduction in ear swelling at 2.5 mg applied topically on ear administered 3 hrs prior to oxazolone challenge on day 7 to 12 post sensitization followed by re-administration of compound on day 13 to 18 without oxazolone challenge measured daily prior to treatment from day 7 to 19; format: functional
Mus musculus [21] = test: (§2) Antiinflammatory activity in tropically administered oxazolone-induced delayed type hypersensitivity BALB/c mouse model assessed as effect on ear weight administered 3 hrs prior to oxazolone challenge on day 7 to 12 post sensitization followed by re-administration of compound on day 13 to 18 without oxazolone challenge measured on day 19; format: functional
Mus musculus [22] = test: as §2, with “reduction in” for “effect on”, “thickness” for “weight”; format: functional
Mus musculus [23] = test: as §2, with “reduction in T-lymphocytes in” for “effect on”, “ear” for “ear weight”, “19 by DAPI-staining based fluorescence microscopic analysis” for “19”; format: functional, cell-based
Mus musculus [24] = test: as §1, with “weight at 0.1 to 2.5 mg” for “weight at 2.5 mg”; format: functional
Mus musculus [25] = test: Antiinflammatory activity in oxazolone-induced delayed type hypersensitivity BALB/c mouse model assessed as effect on histology changes at 0.1 to 2.5 mg applied topically on ear administered 3 hrs prior to oxazolone challenge on day 7 to 12 post sensitization followed by re-administration of compound on day 13 to 18 without oxazolone challenge measured daily prior to treatment from day 7 to 19 by H and E staining based assay; format: functional
Mus musculus [26] = test: (§3) Antiinflammatory activity in oxazolone-induced delayed type hypersensitivity BALB/c mouse model assessed as reduction in ear thickness at 0.1 to 2.5 mg applied topically on ear administered 3 hrs prior to oxazolone challenge on day 7 to 12 post sensitization followed by re-administration of compound on day 13 to 18 without oxazolone challenge measured on day 19 by H and E based staining; format: functional
Mus musculus [27] = test: as §3, with “inflammatory infiltrate” for “ear thickness”; format: functional
Mus musculus [28] = test: Antiinflammatory activity in tropically applied arachidonic acid-induced ear dermatitis ICR mouse model assessed as reduction in ear swelling administered 30 mins prior and 15 mins after arachidonic acid addition measured 60 mins post arachidonic acid challenge; format: functional
Mus musculus [29] = test: as §1, with “as” for “as reduction in”, “thickness” for “weight”, “0.5” for “2.5”, “9 to 15” for “19”; format: functional
Mus musculus [30] = test: as §1, with “as” for “as reduction in”, “thickness” for “weight”, “9 to 15” for “19”; format: functional
Mus musculus [31] = test: as §1, with “as” for “as reduction in”, “ear thickness” for “ear weight”, “at 0.5” for “at 2.5”, “measured after” for “measured on”, “day 16” for “day 19”; format: functional
Mus musculus [32] = test: as §3, with “hyperplastic epidrmis” for “reduction in ear thickness”, “0.5 and” for “0.1 to”, “E staining” for “E”, “assay” for “staining”; format: functional
Mus musculus [33] = test: as §3, with “edema formation” for “ear thickness”, “0.5 and” for “0.1 to”, “E staining” for “E”, “assay” for “staining”; format: functional
Mus musculus [34] = test: as §3, with “effect on” for “reduction in”, “0.5 and” for “0.1 to”, “E staining” for “E”, “assay” for “staining”; format: functional
Mus musculus [35] = test: Antiinflammatory activity in oxazolone-induced delayed type hypersensitivity BALB/c mouse model assessed as effect on ear weight at 0.5 and 2.5 mg applied topically on ear administered 3 hrs prior to oxazolone challenge on day 7 to 12 post sensitization followed by re-administration of compound on day 13 to 18 without oxazolone challenge measured on day 19; format: functional
[36] = biological target: Mu-type opioid receptor (Cavia porcellus) (UniProt P97266); test: Displacement of [3H]DAMGO from mu-type opioid receptor in guinea pig brain membranes at 1 uM after 120 mins by solid scintillation counting; format: cell membranes; settings: Membrane
Sequence of Mu-type opioid receptor (Cavia porcellus) (P97266 whole entry): as the sequence (P97266 whole entry) above

Mus musculus [37] = test: as §1, with “thickness” for “weight”, “0.5” for “2.5”; format: functional
[38] = Lipophilicity, logD of the compound at pH 7.4 by LC/MS analysis; format: physicochemical; settings: buffer

Row | SMILES | Ki [7] | Ki [8] | EC50 [9] | inhibition (INH) (Mus musculus [10]) | inhibition (INH) (Mus musculus [11]) | inhibition (INH) (Mus musculus [12]) | inhibition (INH) (Mus musculus [13]) | inhibition [16] | inhibition (Rattus norvegicus [17]) | inhibition (Sus scrofa) | Activity [18] | Activity (Mus musculus [19]) | Activity (Mus musculus [20]) | other results
1 | CN(C)S(=O)(=O)N1CCN(C(=O)Cc2ccc(Cl)c(Cl)c2)[C@@H]2[C@@H](N3CCCC3)CCC[C@@H]21.Cl |  |  |  |  |  |  |  |  |  |  |  |  |  | concentration at 0.25 h [1]: 1080 ng/mL; concentration at 1 h [2]: 560 ng/mL; concentration at 1 h [3]: 541 ng/g; Kp at 1 h [4]: 0.97; Activity (Rattus norvegicus [5]): Toxic; Activity (Rattus norvegicus [6]): Toxic
2 | COC(=O)N1CCN(C(=O)Cc2ccc(Cl)c(Cl)c2)[C@@H]2[C@@H](N3CC[C@H](O)C3)CCC[C@@H]21 | 0.45 nM | 101 nM | 0.9 nM | 23% | 25% | 41% | 66% |  |  |  |  |  |  | Ki (Mu-type opioid receptor): 184 nM; ED50 (Mus musculus [14]): 2.2 mg/kg; MTC (Mus musculus [15]): 5.4 mg/kg
3 | CS(=O)(=O)N1CCN(C(=O)Cc2ccc(Cl)c(Cl)c2)[C@@H]2[C@@H](N3CC[C@H](O)C3)CCC[C@@H]21 |  |  |  |  |  |  |  | 0% | 15% | 0% | 106% | Active | Active | Activity (Mus musculus [21]): Dose-dependent effect; Activity (Mus musculus [22]): Dose-dependent effect; Activity (Mus musculus [23]): Dose-dependent effect; Activity (Mus musculus [24]): Dose-dependent effect; Activity (Mus musculus [25]): Active; Activity (Mus musculus [26]): Dose-dependent effect; Activity (Mus musculus [27]): Dose-dependent effect
4 | COC(=O)N1CCN(C(=O)Cc2ccc(Cl)c(Cl)c2)[C@@H]2[C@@H](N3CCCC3)CCC[C@@H]21 |  |  |  |  |  |  |  |  |  | 2% |  |  |  | Activity (Mus musculus [28]): Dose-dependent effect; Activity (Mus musculus [29]): inactive; Activity (Mus musculus [30]): Active; Activity (Mus musculus [31]): inactive; Activity (Mus musculus [32]): Active; Activity (Mus musculus [33]): Active; Activity (Mus musculus [34]): inactive; Activity (Mus musculus [35]): inactive
5 | CS(=O)(=O)N1CCN(C(=O)Cc2ccc(F)c(Cl)c2)[C@@H]2[C@@H](N3CC[C@H](O)C3)CCC[C@@H]21 |  |  |  |  |  |  |  | 3% | 3% | 6% | 99% | Active | Active | inhibition [36]: 0%; Activity (Mus musculus [37]): Active
6 | CNC(=O)C(=O)N1CCN(C(=O)Cc2ccc(Cl)c(Cl)c2)[C@@H]2[C@@H](N3CCCC3)CCC[C@@H]21 | 1.5 nM | 681 nM | 8.1 nM | 21% | 30% | 53% | 65% | 0% | 4% | 8% | 104% | Active | Active | inhibition [36]: 12%; logD [38]: 1.71
7 | COC(=O)N1CCN(C(=O)Cc2ccc(Cl)c(Cl)c2)[C@@H]2[C@@H](N3CC[C@@H](O)C3)CCC[C@@H]21 | 1.3 nM | 198 nM | 4.7 nM | 25% | 40% | 66% | 60% |  |  |  |  |  |  | ED50 (Mus musculus [14]): 9.6 mg/kg; MTC (Mus musculus [15]): 16.2 mg/kg
